Experiments:
[1] = Antagonist activity at PAR1 in human platelet-rich plasma assessed as reduction in TRAP-stimulated platelet aggregation preincubated for 20 mins followed by TRAP stimulation measured after 5 mins by aggregometric analysis
[2] = Antagonist activity at PAR1 in human platelet-rich plasma assessed as reduction in thrombin-stimulated platelet aggregation preincubated for 3 mins followed by thrombin stimulation measured after 5 mins by aggregometric analysis
[3] = as above; remark: listed apart in the source

Row | IC50 [1] [µM] | IC50 [2] [µM] | IC50 [3] [µM] | SMILES
1 | 0.031 | 0.081 | – | CCOC(=O)N[C@@H]1CC[C@@H]2[C@@H](C1)C[C@H]1C(=O)O[C@H](C)[C@H]1[C@H]2C=Cc1ccc(-c2cccc(F)c2)cn1 [Ethyl [(3aR,4aR,8aR,9aS)-9(S)-[(E)-2-[5-(3-fluorophenyl)-2-pyridinyl]ethenyl]dodecahydro-1(R)-methyl-3-oxonaphtho[2,3-c]furan-6(R)-yl]carbamate]
2 | 1.6 | – | 0.65 | C[C@H]1CC[C@@H]2C(C)(C)[C@H](O)CC[C@@]2(C)[C@@H]1/C=C/c1ccc(-c2cccc(F)c2)cn1

— BindingDB's records for doi:10.1021/acs.jmedchem.7b00951 (Shandong University, 2017)
